# Publication PMC12790326, “Water Networks as Hydrophobic Recognition Motifs in Proteins” (Angewandte Chemie (International Ed. in English), 2025)
# How the values were obtained:
# BRD4(1) = target: T1, BRD4(1) (Homo sapiens, UniProt O60885); test: TR-FRET binding assay: displacement of tetra-acetylated histone H4 peptide; details: for loss of efficacy/affinity with respect to 1: TR-FRET; for IC50: displacement of tetra-acetylated H4 peptide from BRD4(1), duplicate, best fit; for TR-FRET IC50 (fold change): fold change of IC50 relative to compound 1
# T1 construct: encodes residues 44-168; His6 (TEV-cleavable); made in house; host or cells: Escherichia coli BL21 (DE3)
# Excerpt: Supplementary Information
# Figure S3: Normalized TR-FRET assay showing dose-dependently displacement of a tetra-acetylated H4 peptide from Brd4(BD1) in the presence of compounds 2-5. IC50 values corresponding to best fit are reported inside each graph. […]
# simultaneously. Each dot represents the average of two independent replicas, and the error bars correspond to their standard deviation.
# The BRD4(1) construct was a kind donation of Dr. Alessio Ciulli (University of Dundee, UK) and it encodes residues 44-168. The cloned his-tagged BRD4(1) was expressed in Escherichia coli BL21 (DE3).
# For biophysical assays, the protein puriﬁcation procedure consisted of immobilised metal ion aﬃnity chromatography (IMAC), followed by TEV cleavage of the histidine tag and a second IMAC chromatography. For crystallisation assays, the puriﬁcation protocol involved IMAC chromatography, followed by TEV cleavage and size-exclusion chromatography for crystallography. The expression and puriﬁcation has already been described.[25]
# The Time-Resolved Fluorescence Resonance Energy Transfer (TR-FRET) binding assay used to measure the disruption of the interaction of BRD4(1) with [Lys(Ac)5/8/12/16]-Histone H4 (1-21)-GGK(Biotin) (Eurogentec) with compounds 1-5, was performed according to a previously described protocol.[26] The experiments were performed in 384-well black plates (NUNC) in a buﬀer composed of 50 mM HEPES, pH 7.4, 50 mM NaCl, 400 mM KF (Sigma), 0.5 mM CHAPS (Sigma), and 0.05% BSA (Sigma) in a ﬁnal volume of 100 μL. BRD4(1) (100 nM) protein domain was mixed with 200 nM of the biotin-labelled histone peptides and incubated for 30 min at room temperature. Molecules were prepared in 250 mM HEPES, pH 7.4, 250 mM NaCl, and 20% DMSO at a single concentration to give a ﬁnal concentration of 50 μM 1% DMSO in a total well volume of 100 μL and incubated for 1 h. Molecules showing inhibition were then screened in duplicate at several serial dilutions. Inhibition (%) at 50 μM was calculated with […]
# where the negative control was run without BRD4(1) and inhibitor and positive control, without inhibitor to give the bottom signal and top signal, respectively. The protein−peptide complexes at equilibrium were then detected with 2 nM Eu3+ cryptate-conjugated streptavidin (CisBio) and 10 nM anti-his6-XL665 (CisBio). Titration of a known inhibitor ((+)-JQ1) was used as the control for each experiment. IC50 values were calculated by plotting the log [competitor/inhibitor] versus the mean normalised response data from a single experiment measured in duplicate and ﬁtting it to a four-parameter equation with variable Hill slope, using the GraphPad Prism software: […]
# The plates were measured in a CLARIOStar reader (BMG Labtech) using the homogeneous time-resolved ﬂuorescence module (excitation, 337 nm with 200 ﬂashes; emission, 620 and 665 nm). The 665 nm/620 nm ratios were converted to % normalised TR-FRET ratio = top ratio signal as 100% and […]
# bottom ratio signal as 0% to normalise experiments performed at diﬀerent days. Dose−response […]
# 2. Data Collection and Structure Solution.
# X-ray diffraction data were collected on beamlines I03 and I04-1 at the Diamond Light Source. Data were integrated with XDS[27] and scaled with AIMLESS[28] as part of the XIA2 and autoPROC auto-processing pipelines.[29,30] Initial refinement and map calculation was carried out with DIMPLE[31] using a ligand-free version of BRD4(1) (PDB 3MXF[25]) as starting model. Ligand restraints were generated with ACEDRG[32] and GRADE.[33] Refinement and model building was performed with REFMAC[34] and COOT,[35] respectively. Structure validation was performed with MolProbity.[36] Final models and structure factors have been deposited with PDB accession codes 9QOB and 9QNV. Data […]
# 1) Protein and Ligand Preparation
# Ligand 1 was co-crystallized in the previous study[9] with PDB code 6ZF9. The ligand pose was extracted from the PDB and missing hydrogens were added with MOE.[37] […]
# PDE4D [1] = test: PDE4D inhibition (literature IC50); type: biochemical; details: gain from the phenyl ring of 3DE (82 µM to 270 nM)
# PDE4D [2] = system: PDE4D; set-up: method as in PMID 15685167; details: with the phenyl ring; the analogue without it has 82 µM; read-out: affinity for PDE4D (IC50); cited from earlier work
smiles,measurement,setting,value
COCc1nnc2scc(-c3ccccc3)n12 [Compound 3],loss of efficacy/affinity with respect to 1,BRD4(1),3 fold
same,IC50,BRD4(1),85 µM
same,TR-FRET IC50 (fold change),BRD4(1),3.3 x
Cc1nnc2scc(-c3ccccc3)n12 [Compound 2],loss of efficacy/affinity with respect to 1,BRD4(1),2 fold
same,IC50,BRD4(1),54 µM
same,TR-FRET IC50 (fold change),BRD4(1),2 x
CCOC(=O)c1c(C)nn(-c2ccccc2)c1C [Compound 3DE],ΔΔG bind,PDE4D [1],3.4 kcal/mol
same,IC50,PDE4D [2],0.27 µM
OCc1nnc2scc(-c3ccccc3)n12 [Compound 4],loss of efficacy/affinity with respect to 1,BRD4(1),2.5 fold
same,IC50,BRD4(1),65 µM
same,TR-FRET IC50 (fold change),BRD4(1),2.5 x
